Source: article PMC11645656, “MRGPRX4 mediates phospho-drug associated pruritus in a humanized mouse model” (Science translational medicine, 2024)
Values joined by “and” are separate entries in the source; they are usually repeats but may differ in a detail not shown here. Equal entries are not always repeated.

System: mock
Experiment: Calcium mobilization assay (FLIPR), mock-transfected cells (Fig. 3E and 3F)
Type: cell-based

SMILES: CC(C)c1cccc(C(C)C)c1OCOP(=O)(O)O [Fospropofol]
- calcium mobilization response (Fig. 3E and 3F dose-response) (5.08e-9 M): 10.7608 and 18.8313 and 12.7088
- calcium mobilization response (Fig. 3E and 3F dose-response) (1.37e-7 M): 17.7181 and 25.7886 and 28.015
- calcium mobilization response (Fig. 3E and 3F dose-response) (4.12e-7 M): 16.3266 and 13.822 and 21.6142
- calcium mobilization response (Fig. 3E and 3F dose-response) (1.23e-6 M): 32.4677 and 38.8684 and 39.425
- calcium mobilization response (Fig. 3E and 3F dose-response) (3.7e-6 M): 22.4491 and 40.2599 and 25.232
- calcium mobilization response (Fig. 3E and 3F dose-response) (1.11e-5 M): 30.7979 and 29.963 and 39.7033
- calcium mobilization response (Fig. 3E and 3F dose-response) (3.33e-5 M): 34.1374 and 32.1894 and 41.0947
- calcium mobilization response (Fig. 3E and 3F dose-response) (0.0001 M): 28.2933 and 31.0762 and 40.2599
